Laboratory results taken from US6930092B1, “Antibiotic agents” (priority 1999, dated 2005).
Where two headings read alike, the source gives them in different places.

Tests used:
[1] = Degradation of 5-deB in Britton-Robinson buffer followed by 1D 1H NMR; type: physicochemical; conditions: apparent pH 2.5, 55° C., 5 hr
From the text: The deuteriation effects at C8 as in erythromycin B were observed but there was no change elsewhere.

[2] = type: physicochemical
Description: The suspected intermediate, eBee was prepared and then was added into a partially degraded erythromycin B, the mixture of partially degraded erythromycin B, and the pure eBee solution were compared. […] However, the involvement of eBee as the intermediate in the degradation of erythromycin B was clearly observed in the degradation experiment of eBee.
At present, there is no mechanism of degradation of erythromycin B which has been proposed. An experiment was designed to distinguish whether eBee is degraded to 5-deB via erythromycin B or not. Britton-Robinson buffers, 40 mM of pH2 and 7 were prepared and aliquoted into eppendorf tubes. Just before the experiment started, erythromycin B was dissolved in 20 ul of dimethyl-d6 sulfoxide (99.9 atom % D, Sigma, St Louis, USA) and then was transferred immediately into the buffer and 1D^1H NMR spectra were recorded at 37° C. The typical spectra at 0, 10 and 20 min are depicted in FIGS. 19, 20 and 21, respectively.
After 10 min, the amount of eBee was reduced to almost 40%, but 5-deB was still undetectable. After 20 min, 5-deB appeared in the spectrum, characterised by its H13 at δ5.38, whilst eBee became insignificant in the spectrum.
A similar experiment was repeated by using buffer at pH 7, and 1D^1H spectra were recorded at 37° C. The spectrum of eBee after 0 and 60 min of incubation are depicted in FIGS. 22 and 23, respectively. […] There was trace of erythromycin B but no eBee was detected in the spectra.

[3] = cited from earlier work

5-desosaminyl erythronolide B [5-deB]
further degradation [1]: does not degrade further

CC[C@H]1OC(=O)[C@H](C)[C@@H](O[C@H]2C[C@@](C)(OC)[C@@H](O)[C@H](C)O2)[C@H](C)[C@@H](O[C@@H]2O[C@H](C)C[C@H](N(C)C)[C@H]2O)C2(C)CC(C)=C(O2)[C@H](C)[C@@H](O)[C@H]1C (stereo partly shown) [eBee, erythromycin B enol ether]
amount of eBee in the spectrum ([2]; Britton-Robinson buffer pH 2, 37° C., after 20 min): insignificant
amount of eBee remaining ([2]; buffer, 10 min, pH 2): ~40%
degradation ([2]; pH 2.5): rapidly degraded to erythromycin B
degradation ([2]; pH 7): not degraded at least for 80 min

CC[C@H]1OC(=O)[C@H](C)[C@@H](O[C@H]2C[C@@](C)(OC)[C@@H](O)[C@H](C)O2)[C@H](C)[C@@H](O[C@@H]2O[C@H](C)C[C@H](N(C)C)[C@H]2O)[C@](C)(O)C[C@@H](C)C(=O)[C@H](C)[C@@H](O)[C@]1(C)O [erythromycin A]
time in which degraded to completeness ([3]; 50 mM acetate buffer pH 4.6, 60° C.): ≤ 3 h
time in which decomposed almost completely ([3]; 50 mM formate buffer pH 4, 37° C.): ≤ 4 h
degradation ([3]; pH 3.5, 35° C.): degraded substantially even before the first spectrum was recorded

CC[C@H]1OC(=O)[C@H](C)[C@@H](O[C@H]2C[C@@](C)(OC)[C@@H](O)[C@H](C)O2)[C@H](C)[C@@H](O[C@@H]2O[C@H](C)C[C@H](N(C)C)[C@H]2O)[C@](C)(O)C[C@@H](C)C(=O)[C@H](C)[C@@H](O)[C@H]1C [erythromycin B, Erythromycin B]
time in which decomposition was completed (pH 2.5, depending on the temperature used): 6 to 12 h
degradation (pH 4.6): degradation occurred very slowly
